Source: patent US7223781B2 (Beiersdorf AG, priority 2001, dated 2007)
Where two headings read alike, the source gives them in different places. Values belong to the molecule of their own block, whether it stands above or below them.

Molecular target: T1, COX-1 (Sus scrofa, UniProt A0A287ANF9)
T1 construct: A platelet suspension obtained from pig's blood is preincubated with the test substance; endogenous in cells; host or cells: platelets from pig's blood
Experiment: In-vitro test for COX-1 inhibition: fluorimetric quantification of malonaldehyde (MDA) in A23187-activated pig platelet suspension
Format: cell-based
Experimental: In-vitro Test Procedure for the Determination of COX-1 Inhibition
The inhibition of the cyclooxygenase pathway is carried out by fluorimetric quantification of malonaldehyde (MA). This condenses in the acidic medium with twice the molar amount of thiobarbituric acid to give a red pigment dye, which has a fluorescence at λExcitation: 533 nm, λEmission: 550 nm.
A platelet suspension obtained from pig's blood is preincubated with the test substance for 10 min at 37° C. The concentration of the suspension should be 8×10^8 cells/ml. The arachidonic acid cascade is then activated by addition of the antibiotic calcium ionophore A23187 ([…]). After a further 10 min at 37° C., the reaction is stopped using a trichloroacetic acid solution. The samples are centrifuged and the supernatant is incubated with thiobarbituric acid for 30 min at 70° C. After cooling (30 min at room temperature), the samples are measured fluorimetrically at 533/550 nm and the IC50 values of the test compounds are determined therefrom by means of a calibration curve.

[1] = Table 7, arylamides, pig platelets, read-out: MDA IC50
[2] = Table 11, heteroaryl- and naphthylamides, pig platelets, read-out: MDA pIC50 (converted)
[3] = Table 1, carbamic acid thioesters, pig platelets, read-out: MDA pIC50 (converted)
[4] = Table 7, arylamides, pig platelets, read-out: MDA pIC50 (converted)
[5] = Table 9, alkylamides, pig platelets, read-out: MDA pIC50 (converted)
[6] = Table 8, arylsulfonamides, pig platelets, read-out: MDA IC50
[7] = Table 5, heteroarylmethyl sulfides, pig platelets, read-out: MDA pIC50 (converted)
[8] = tables 1 to 17, read-out: IC50 values (inhibition of cyclooxygenase-1)
[9] = Table 9, alkylamides, pig platelets, read-out: MDA IC50

T1 sequence (A0A287ANF9 25-600): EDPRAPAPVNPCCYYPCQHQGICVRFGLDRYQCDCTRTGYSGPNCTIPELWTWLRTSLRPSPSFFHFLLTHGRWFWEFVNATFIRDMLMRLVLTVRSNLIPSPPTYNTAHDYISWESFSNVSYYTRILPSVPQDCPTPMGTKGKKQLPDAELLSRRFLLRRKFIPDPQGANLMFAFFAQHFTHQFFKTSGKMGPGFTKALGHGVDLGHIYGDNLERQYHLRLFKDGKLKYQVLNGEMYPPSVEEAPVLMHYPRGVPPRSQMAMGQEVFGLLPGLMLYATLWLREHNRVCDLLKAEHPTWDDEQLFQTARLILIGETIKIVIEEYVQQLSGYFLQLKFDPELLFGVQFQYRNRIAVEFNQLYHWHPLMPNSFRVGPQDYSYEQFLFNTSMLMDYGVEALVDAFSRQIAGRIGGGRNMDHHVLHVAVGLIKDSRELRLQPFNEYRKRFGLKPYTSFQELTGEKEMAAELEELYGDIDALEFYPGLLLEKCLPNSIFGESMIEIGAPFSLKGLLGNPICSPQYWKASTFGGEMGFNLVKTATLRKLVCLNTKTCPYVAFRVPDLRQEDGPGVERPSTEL

MDA pIC50 (Table 7, arylamides, pig platelets): 6.03 M | IC50 [1]: 930 nM
Compound: COc1ccc(-c2nc(SCCNC(=O)c3cccc(Cl)c3)[nH]c2-c2ccc(OC)cc2)cc1 [Compound T33, N^1-{2-[4,5-Bis(4-methoxyphenyl)-1H-imidazol-2-ylsufanyl]ethyl}-3-chlorobenzamide]

IC50 [2]: 100 nM
Compound: COc1ccc(-c2nc(SCCNC(=O)c3cccs3)[nH]c2-c2ccc(OC)cc2)cc1 [Compound T54, N^1-{2-[4,5-Bis(4-methoxyphenyl)-1H-imidazol-2-ylsulfanyl]ethyl}thiophene-2-carboxamide]

IC50 (Table 6, N1-acetic acid derivatives, pig platelets, read-out: MDA IC50): 720 nM
Compound: COc1ccc(-c2nc(SCc3ccncc3)n(CC(=O)O)c2-c2ccc(OC)cc2)cc1 [Compound T77, 2-[4,5-Bis(4-methoxyphenyl)-2-(4-pyridylmethylsulfanyl)-1H-imidazol-1-yl]-acetic acid]

IC50 (Table 4, aryl ketones, pig platelets, read-out: MDA IC50): 46 nM
Compound: COc1ccc(-c2nc(SCC(=O)c3ccc(Cl)cc3)[nH]c2-c2ccc(OC)cc2)cc1 [Compound T12]

IC50 [3]: 12 nM
Compound: COc1ccc(-c2nc(SC(=O)N(C(C)C)C(C)C)[nH]c2-c2ccc(OC)cc2)cc1 [Compound T3, [4,5-Bis(4-methoxyphenyl)-1H-imidazol-2-yl]-N,N-diisopropylcarbamic acid thioester]

IC50 [4]: 170 nM
Compound: COc1ccc(-c2nc(SCCNC(=O)c3ccccc3[N+](=O)[O-])[nH]c2-c2ccc(OC)cc2)cc1 [Compound T41, N^1-{2-[4,5-Bis(4-methoxyphenyl)-1H-imidazol-2-ylsulfanyl]ethyl}-2-nitro-benzamide]

IC50 [1]: 450 nM
Compound: O=C(NCCSc1nc(-c2ccc(Cl)cc2)c(-c2ccc(Cl)cc2)[nH]1)c1ccccc1 [Compound T85, N^1-{2-[4,5-Bis(4-chlorophenyl)-1H-imidazol-2-ylsufanyl]ethyl}benzamide]

IC50 [5]: 182 nM
Compound: COc1ccc(-c2nc(SCCNC(=O)C=Cc3ccccc3)[nH]c2-c2ccc(OC)cc2)cc1 [Compound T61, N^1-{2-[4,5-Bis(4-methoxyphenyl)-1H-imidazol-2-ylsulfanyl]ethyl}-3-phenylprop-2-enamide]

IC50 [6]: 60 nM
Compound: COc1ccc(-c2nc(SCCNS(=O)(=O)c3ccc(F)cc3)[nH]c2-c2ccc(OC)cc2)cc1 [Compound T20, N^1-{2-[4,5-Bis(4-methoxyphenyl)-1H-imidazol-2-ylsufanyl]ethyl}-4-fluorobenzenesulfonamide]

IC50 [3]: 28.2 nM
Compound: COc1ccc(-c2nc(SC(=O)N3CCOCC3)[nH]c2-c2ccc(OC)cc2)cc1 [Compound T4, [4,5-Bis(4-methoxyphenyl)-1H-imidazol-2-yl]-morpholine-4-carbamic acid thioester]

IC50 [3]: 4170 nM
Compound: CCN(CC)C(=O)Sc1nc(-c2ccc(Cl)cc2)c(-c2ccccc2)[nH]1 [Compound T104, [4-(4-Chlorophenyl)-5-phenyl-1H-imidazol-2-yl]-N,N-diethylcarbamic acid thioester]

IC50 (Table 8, arylsulfonamides, pig platelets, read-out: MDA pIC50 (converted)): 324 nM
Compound: COc1ccc(-c2nc(SCCNS(=O)(=O)c3c(C)cc(C)cc3C)[nH]c2-c2ccc(OC)cc2)cc1 [Compound T25, N^1-{2-[4,5-Bis(4-methoxyphenyl)-1H-imidazol-2-ylsufanyl]ethyl}-2,4,6-trimethylbenzenesulfonamide]

IC50 [7]: 3.02 nM | IC50 [8]: ~1 nM
Compound: COc1ccc(-c2nc(SCc3cccnc3)[nH]c2-c2ccc(OC)cc2)cc1 [Compound T70, 3-[4,5-Bis(4-methoxyphenyl)-1H-imidazol-2-ylsulfanylmethyl]pyridine]

IC50 [9]: 8.8 nM | IC50 [8]: ~1 nM
Compound: COc1ccc(-c2nc(SCCNC(=O)C(C)C)[nH]c2-c2ccc(OC)cc2)cc1 [Compound T51, N^1-{2-[4,5-Bis(4-methoxyphenyl)-1H-imidazol-2-ylsufanyl]ethyl}-2-methylpropanamide]

IC50 [1]: 640 nM | IC50 [4]: 603 nM
Compound: COc1ccc(-c2nc(SCCNC(=O)c3cc(OC)c(OC)c(OC)c3)[nH]c2-c2ccc(OC)cc2)cc1 [Compound T46, N^1-{2-[4,5-Bis(4-methoxyphenyl)-1H-imidazol-2-ylsufanyl]ethyl}-3,4,5-trimethoxybenzamide]

IC50 [1]: 520 nM
Compound: COc1ccc(-c2nc(SCCNC(=O)c3cc(C(F)(F)F)cc(C(F)(F)F)c3)[nH]c2-c2ccc(OC)cc2)cc1 [Compound T44, N^1-{2-[4,5-Bis(4-methoxyphenyl)-1H-imidazol-2-ylsufanyl]ethyl}-3,5-bis-(trifluoromethyl)benzamide]

IC50 [9]: 150 nM | IC50 [5]: 151 nM
Compound: COc1ccc(-c2nc(SCCNC(=O)CCc3ccccc3)[nH]c2-c2ccc(OC)cc2)cc1 [Compound T60, N^1-{2-[4,5-Bis(4-methoxyphenyl)-1H-imidazol-2-ylsulfanyl]ethyl}-3-phenylpropanamide]

IC50 [6]: 48 nM
Compound: COc1ccc(-c2nc(SCCNS(=O)(=O)c3ccc(C)cc3)[nH]c2-c2ccc(OC)cc2)cc1 [Compound T24, N^1-{2-[4,5-Bis(4-methoxyphenyl)-1H-imidazol-2-ylsufanyl]ethyl}-4-methylbenzenesulfonamide]

Compound: COc1ccc(-c2nc(SC(=O)N(C)C)[nH]c2-c2ccc(OC)cc2)cc1 [Compound T1, [4,5-Bis(4-methoxyphenyl)-1H-imidazol-2-yl]-N,N-dimethylcarbamic acid thioester]
IC50 (Table 1, carbamic acid thioesters, pig platelets, read-out: MDA IC50): 71 nM

IC50 (Table 10, alkylsulfonamides, pig platelets, read-out: MDA pIC50 (converted)): 10 nM
Compound: COc1ccc(-c2nc(SCCNS(=O)(=O)C(C)C)[nH]c2-c2ccc(OC)cc2)cc1 [Compound T65, N^1-{2-[4,5-Bis(4-methoxyphenyl)-1H-imidazol-2-ylsulfanyl]ethyl}-propane-2-sulfonamide]

IC50 (Table 14, sulfones and their sulfide analogs, pig platelets, read-out: MDA pIC50 (converted)): 12 nM
Compound: CCOC(=O)CSc1nc(-c2ccc(OC)cc2)c(-c2ccc(OC)cc2)[nH]1 [Compound T79, Ethyl 2-[4,5-bis(4-methoxyphenyl)-1H-imidazol-2-ylsufanyl]acetate]

IC50 [2]: 347 nM
Compound: COc1ccc(-c2nc(SCCNC(=O)c3ccco3)[nH]c2-c2ccc(OC)cc2)cc1 [Compound T53, N^1-{2-[4,5-Bis(4-methoxyphenyl)-1H-imidazol-2-ylsulfanyl]ethyl}furan-2-carboxamide]

IC50 (Table 12, naphthylsulfonamides, pig platelets, read-out: MDA pIC50 (converted)): 380 nM
Compound: COc1ccc(-c2nc(SCCNS(=O)(=O)c3cccc4ccccc34)[nH]c2-c2ccc(OC)cc2)cc1 [Compound T67, N^1-{2-[4,5-Bis(4-methoxyphenyl)-1H-imidazol-2-ylsulfanyl]ethyl}-naphthalene-1-sulfonamide]

IC50 [1]: 62 nM
Compound: COc1ccc(-c2nc(SCCNC(=O)c3ccccc3Cl)[nH]c2-c2ccc(OC)cc2)cc1 [Compound T34, N^1-{2-[4,5-Bis(4-methoxyphenyl)-1H-imidazol-2-ylsufanyl]ethyl}-2-chlorobenzamide]

Compound: COc1ccc(-c2nc(SCc3nc4ccccc4[nH]3)[nH]c2-c2ccc(OC)cc2)cc1 [Compound T73]
IC50 [7]: 389 nM

IC50 [5]: 417 nM
Compound: COc1ccc(-c2nc(SCCNC(=O)C(C)(C)C)[nH]c2-c2ccc(OC)cc2)cc1 [Compound T52, N^1-{2-[4,5-Bis(4-methoxyphenyl)-1H-imidazol-2-ylsulfanyl]ethyl}-2,2-dimethylpropanamide]

IC50 (Table 13, urea derivatives, pig platelets, read-out: MDA IC50): 50 nM
Compound: CCN(CC)C(=O)NCCSc1nc(-c2ccc(OC)cc2)c(-c2ccc(OC)cc2)[nH]1 [Compound T58, N^1-{2-[4,5-Bis(4-methoxyphenyl)-1H-imidazol-2-ylsulfanyl]ethyl}-N′,N′-diethylurea]

IC50 [4]: 100 nM
Compound: COc1ccc(-c2nc(SCCNC(=O)c3cccc(C(F)(F)F)c3)[nH]c2-c2ccc(OC)cc2)cc1 [Compound T43, N^1-{2-[4,5-Bis(4-methoxyphenyl)-1H-imidazol-2-ylsufanyl]ethyl}-3-(tri-fluoromethyl)benzamide]

IC50 [5]: 129 nM
Compound: COc1ccc(-c2nc(SCCNC(=O)C(c3ccccc3)c3ccccc3)[nH]c2-c2ccc(OC)cc2)cc1 [Compound T62, N^1-{2-[4,5-Bis(4-methoxyphenyl)-1H-imidazol-2-ylsulfanyl]ethyl}-2,2-diphenylacetamide]

MDA pIC50 (Table 15, N,N-acetamides, pig platelets): 5.28 M | IC50 (Table 15, N,N-acetamides, pig platelets, read-out: MDA IC50): 5200 nM
Compound: CC(Sc1nc(-c2ccc(Cl)cc2)c(-c2ccc(Cl)cc2)n1C)C(=O)N(C)C (stereo not drawn) [Compound T88, 2-[4,5-Bis(4-chlorophenyl)-1-methyl-1H-imidazol-2-ylsufanyl]-1-(di-methylamino)propan-1-one]

IC50 (Table 11, heteroaryl- and naphthylamides, pig platelets, read-out: MDA IC50): 560 nM
Compound: COc1ccc(-c2nc(SCCNC(=O)c3cccc4ccccc34)[nH]c2-c2ccc(OC)cc2)cc1 [Compound T55, N^1-{2-[4,5-Bis(4-methoxyphenyl)-1H-imidazol-2-ylsulfanyl]ethyl}-1-naphthamide]

IC50 [9]: 54 nM
Compound: COc1ccc(-c2nc(SCCNC(=O)Cc3ccccc3)[nH]c2-c2ccc(OC)cc2)cc1 [Compound T59, N^1-{2-[4,5-Bis(4-methoxyphenyl)-1H-imidazol-2-ylsulfanyl]ethyl}-2-phenylacetamide]

IC50 (Table 5, heteroarylmethyl sulfides, pig platelets, read-out: MDA IC50): 700 nM
Compound: c1ccc(-c2nc(SCc3ccccn3)[nH]c2-c2ccccc2)cc1 [Compound T91, 2-[4,5-Diphenyl-1H-imidazol-2-ylsulfanylmethyl]pyridine]
